Patent US20140023611A1 (priority 2010, published 2014)

How the values were obtained:
rat NaP2b (SLC34A2) [1] = molecular target: T1, rat NaP2b (SLC34A2) (Rattus norvegicus, UniProt Q9JJ09); experiment: Inhibition of NaP2b-mediated Pi (33P) uptake in transfected HEK293 cells, rat NaP2b; assay type: cell-based; conditions: 33P Pi uptake, 0.1 mM phosphate, value given as pIC50 range
T1 construct: host or cells: HEK293
T1 sequence (Q9JJ09 1-695): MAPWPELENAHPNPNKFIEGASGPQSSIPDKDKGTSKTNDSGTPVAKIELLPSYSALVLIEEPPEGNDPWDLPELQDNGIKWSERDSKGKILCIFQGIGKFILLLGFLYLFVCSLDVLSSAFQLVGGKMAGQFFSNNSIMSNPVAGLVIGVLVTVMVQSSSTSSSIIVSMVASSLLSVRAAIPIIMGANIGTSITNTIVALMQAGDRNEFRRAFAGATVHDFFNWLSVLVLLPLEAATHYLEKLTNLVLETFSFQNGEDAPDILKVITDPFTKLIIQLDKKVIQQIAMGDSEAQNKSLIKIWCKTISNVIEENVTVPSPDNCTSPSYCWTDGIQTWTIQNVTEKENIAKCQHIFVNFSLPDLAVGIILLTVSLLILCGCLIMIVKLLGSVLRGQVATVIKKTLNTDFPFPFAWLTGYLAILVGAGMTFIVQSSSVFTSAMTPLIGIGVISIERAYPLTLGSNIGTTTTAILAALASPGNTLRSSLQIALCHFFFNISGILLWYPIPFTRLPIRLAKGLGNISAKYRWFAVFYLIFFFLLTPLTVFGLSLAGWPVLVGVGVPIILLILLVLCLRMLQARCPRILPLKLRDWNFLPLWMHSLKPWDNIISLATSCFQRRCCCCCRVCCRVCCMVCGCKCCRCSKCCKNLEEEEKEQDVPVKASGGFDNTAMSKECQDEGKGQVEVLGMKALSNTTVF
Summary of the method: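 The cells transiently expressed NaP2b after Lipofectamine transfection. Each compound was run in duplicate over twelve concentrations, 0.1 nM–30 uM.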

NaPi2b = experiment: Competition with phosphate: Pi uptake assay repeated at 2.1 vs 0.1 mM phosphate; assay type: cell-based; conditions: potency at 2.1 vs 0.1 mM phosphate
From the text: For example, a phosphate uptake assay can be performed and the IC50 values for a compound at different phosphate concentrations can be determined (e.g., “Enzyme kinetics”, I. Segel, 1975, John-Wiley & Sons, p. 123). IC50 values for non-competitive inhibitors will remain the same or similar with respect to the phosphate concentration, whereas IC50 values for competitive inhibitors will increase (i.e lose potency) as phosphate concentration increases.
To ascertain if an inhibitor was competitive for binding with phosphate, the procedure was repeated, but raising the concentration of the substrate in the assay mixture from 0.1 to 2.1 mM phosphate.

human NaP2b (SLC34A2) = molecular target: T2, human NaP2b (SLC34A2) (Homo sapiens, UniProt O95436); experiment: Inhibition of NaP2b-mediated Pi (33P) uptake in transfected HEK293 cells, human NaP2b; assay type: cell-based; conditions: read-out: pIC50 range for human NaP2b (converted)
T2 construct: host or cells: HEK293
T2 sequence (O95436 1-690): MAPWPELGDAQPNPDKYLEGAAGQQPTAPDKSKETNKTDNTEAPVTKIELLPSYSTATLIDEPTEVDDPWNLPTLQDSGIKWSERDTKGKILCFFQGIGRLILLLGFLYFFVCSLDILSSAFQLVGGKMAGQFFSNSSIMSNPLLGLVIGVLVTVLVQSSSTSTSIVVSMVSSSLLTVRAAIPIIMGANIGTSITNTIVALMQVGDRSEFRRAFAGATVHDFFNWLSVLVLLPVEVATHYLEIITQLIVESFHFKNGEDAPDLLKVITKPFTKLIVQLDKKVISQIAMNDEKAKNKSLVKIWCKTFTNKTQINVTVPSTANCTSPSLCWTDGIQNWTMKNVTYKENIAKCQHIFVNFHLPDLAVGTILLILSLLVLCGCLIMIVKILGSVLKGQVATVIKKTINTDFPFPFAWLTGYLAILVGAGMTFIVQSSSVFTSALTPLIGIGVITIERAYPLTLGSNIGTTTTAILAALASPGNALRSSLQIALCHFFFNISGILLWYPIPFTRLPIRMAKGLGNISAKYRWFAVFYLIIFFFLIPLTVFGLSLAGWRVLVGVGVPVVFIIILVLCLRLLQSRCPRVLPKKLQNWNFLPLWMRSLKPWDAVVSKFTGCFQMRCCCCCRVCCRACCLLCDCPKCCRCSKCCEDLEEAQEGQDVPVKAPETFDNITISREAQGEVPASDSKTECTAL
Summary of the method: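 Uptake of 33P-phosphate (100 uM KH2PO4 carrier, sodium vs choline buffer, pH 7.4) measured after 3-30 min at room temperature, with test compound at twelve concentrations from 0.1 nM to 30 uM in duplicate. Cells were HEK293 transfected with mutated human NaP2b (Thr insertion after 37, N39D) and treated with a PiT-silencing agent. pIC50 values from scintillation counts.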

rat NaP2b (SLC34A2) [2] = molecular target: T1, rat NaP2b (SLC34A2); experiment: NaP2b-mediated Pi transport (33P uptake) in transfected HEK293 cells, rat NaP2b; assay type: cell-based; conditions: Structure (V) examples, Table 2; rat NaP2b, HEK293; read-out: pIC50 Range (converted)
Protocol: HEK293 cells were obtained from the American Type Culture collection and propagated per their instructions. Expression clones for rat and human NaP2b (SLC34A2) were obtained from Open Biosystems (Catalog numbers MRN1768-9510282, and MHS1010-99823026, respectively). The sequence of the human protein was mutated to insert a threonine after residue 37, and to introduce a N39D mutation.
(§1) The rate of phosphate (Pi) uptake into HEK293 cells was measured using a modification of the method described by Mohrmann et al. (Mohrmann, I., Mohrmann, M., Biber, J., and Murer, H. (1986) Am. J. Phys. 250(3 Pt 1):G323-30.) Transfected HEK293 cells were treated with a pharmacological agent to minimize endogenous PiT-mediated phosphate transport activity, such that the only remaining sodium-dependent phosphate transport activity is that which was bestowed by introduction of the NaP2b genes.
(§2) Cells were seeded into 96-well plates at 25,000 cells/well and cultured overnight. Lipofectamine 2000 (Invitrogen) was used to introduce the NaP2b cDNA, and the cells were allowed to approach confluence during a second overnight incubation. […] Cells were then overlayed with either choline uptake buffer or sodium uptake buffer (14 mM Tris, 137 mM sodium chloride, 5.4 mM KCl, 2.8 mM CaCl2, 1.2 mM MgSO4, 100 uM KH2PO4, PiT-silencing agent, 1 mg/mL Bovine Serum Albumin, pH 7.4) containing 6-9 uCi/mL ^33P orthophosphoric acid (Perkin Elmer) and test compound. Each compound was tested at twelve concentrations ranging from 0.1 nM to 30 uM. Assays were run in duplicate.
After incubation for 3-30 minutes at room temperature, assay mixtures were removed, and the cells were washed twice with ice cold stop solution (137 mM sodium chloride, 14 mM Tris, pH 7.4). Cells were lysed by addition of 20 μL 0.1% Tween 80 followed by 100 μL scintillation fluid, and counted using a TopCount (Perkin Elmer).
pIC50 (the negative log of the IC50) values of the test compounds were calculated using GraphPad Prism.
HEK293 cells were obtained from the American Type Culture collection and propagated per their instructions. Expression clones for rat and mouse NaP2b (SLC34A2) cDNAs were obtained from Open Biosystems (Catalog numbers MRN1768-9510282 and MMM1013-98478398 respectively).
as §1, with “phosphate” for “phosphate (Pi)”
as §2, with “agent, 0.1% wt/v bovine serum albumin,” for “agent, 1 mg/mL Bovine Serum Albumin,”, “Each compounds” for “Each compound”
After incubation for 3-30 minutes at room temperature, assay mixtures were removed, and the cells were washed twice with ice cold stop solution (137 mM sodium chloride, 14 mM Tris, pH 7.4).

[3] = tested on: uptake of phosphate from the intestine; experiment: In vivo assay: bolus phosphorus (phosphate) challenge; parameters: species or system Sprague-Dawley rats; conditions: Structure (V) examples, Table 4, rat, oral 30 mg/kg
Protocol: By pretreating animals with a low phosphorus diet followed by the subsequent dosing of a phosphorus bolus, serum phosphorus levels were monitored after 30 minutes as a surrogate for intestinal phosphorus absorption. […] The in vivo bolus phosphorus challenge model used here mimics this model in rats.
Male, 7-week-old Sprague-Dawley rats (Charles-River laboratories international, Hollister, Calif.) were allowed to acclimatize for a minimum of 3 days before switching to a synthetic low-phosphorus diet (TD.85010, Harlan Teklad, Madison, Wis.) which contains 0.1% phosphorus and 0.6% calcium. At day 5, testing compounds or vehicle alone (as indicated) were orally administered at the indicated dose in a volume of 5 ml/kg, followed by a bolus gavage of monobasic sodium phosphate (1 mmol in 1 ml) 15 min after compound dosing. Serum was collected via retroorbital bleeding 30 min post phosphate bolus and phosphate levels were determined utilizing an ACE ALERA blood chemistry analyzer (Alfa Wassermann Diagnostic Technologies, West Caldwell, N.J.). […]
Male, 7-week-old Sprague-Dawley rats (Charles-River laboratories international, Hollister, Calif.) were allowed to acclimate for a minimum of 3 days before switching to a synthetic low-phosphorus diet (TD.85010, Harlan Teklad, Madison, Wis.) which contains 0.1% phosphorus and 0.6% calcium. At day 5, testing compounds or vehicle alone (as indicated) were orally administered at the indicated dose in a volume of 5 ml/kg, followed by a bolus gavage of monobasic sodium phosphate (1 mmol in 1 ml) 15 min after compound dosing. Serum was collected via retroorbital bleeding 30 min post phosphate bolus and phosphate levels were determined utilizing an ACE ALERA blood chemistry analyzer (Alfa Wassermann Diagnostic Technologies, West Caldwell, N.J.).
Serum was collected 30 minutes after gavage, and phosphate levels measured. […] The in vivo bolus phosphate challenge model used here mimics this model in rats.
Male, 7-week-old Sprague-Dawley rats (Charles-River laboratories international, Hollister, Calif.) were allowed to acclimatize for a minimum of 3 days before switching to a low-phosphorus diet (TD.85010, Harlan Teklad, Madison, Wis.) which contains 0.1% phosphorus and 0.6% calcium. At day 5, testing compounds or vehicle alone (as indicated) were orally administered at the indicated dose in a volume of 5 ml/kg, followed by a bolus gavage of monobasic sodium phosphate (1 mmol in 1 ml) 15 min after compound dosing. Serum was collected via retroorbital bleeding 30 min post phosphate bolus and serum phosphate levels were determined utilizing an ACE ALERA blood chemistry analyzer (Alfa Wassermann Diagnostic Technologies, West Caldwell, N.J.).
The representative data on effects of test compounds on serum phosphate levels are shown in Table 4 (data are expressed as mean±SD, with 6 animals per data point). The differences between groups were evaluated by one-way analysis of variance with Dunnett's post hoc tests.

Row | IC50 (rat NaP2b (SLC34A2) [1]) [nM] | IC50 (human NaP2b (SLC34A2)) [nM] | Compound | Competitive with respect to Pi? (NaPi2b) | IC50 (rat NaP2b (SLC34A2) [2]) [nM] | % Decrease in serum [Pi] [3] [%] | Serum increase [Pi] mg/dL from baseline low PI state ([3]; mean ± SD, vehicle 5.0 ± 1.3) [mg/dL]
1 | 10000 to 31600 |  | O=C(O)c1cccc(S(=O)(=O)Cc2cccc(C(=O)Nc3ccc(N4CCCCC4)cc3-c3cc(C(=O)NCc4cccc(C(F)(F)F)c4)ccn3)c2)c1 [Example 8.26, 3-((3-((4-(Piperidin-1-yl)-2-(4-((3-(trifluoromethyl)benzyl)carbamoyl)pyridin-2-yl)phenyl)carbamoyl)benzyl)sulfonyl)benzoic acid] | No |  |  | 
2 | 1000 to 7940 | < 1000 | O=C(O)CCOCCOCCOCCNC(=O)c1cccc(SCc2cccc(C(=O)Nc3ccc(N4CCCCC4)cc3-c3cc(C(=O)NCc4cccc(C(F)(F)F)c4)ccn3)c2)c1 [Example 10.1, 1-oxo-1-(3-(3-(4-(piperidin-1-yl)-2-(4-(3-(trifluoromethyl)benzyl-carbamoyl)pyridin-2-yl)phenylcarbamoyl)benzylthio)phenyl)-5,8,11-trioxa-2-azatetradecan-14-oic acid] | No |  |  | 
3 | < 1000 |  | O=C(O)Cc1cccc(SCc2cccc(C(=O)Nc3ccc(N4CCCCC4)cc3-c3cc(C(=O)NCc4cccc(C(F)(F)F)c4)ccn3)c2)c1 [Example 8.18] | No |  |  | 
4 |  |  | O=C(Nc1ccc(N2CCCCC2)cc1C(=O)N/N=C/c1ccc(Cl)c(C(F)(F)F)c1)c1cccc(Cn2cnc(CCO)c2)c1 [Ex. 47, (E)-N-(2-(2-(4-chloro-3-(trifluoromethyl)benzylidene)hydrazinecarbonyl)-4-(piperidin-1-yl)phenyl)-3-((4-(2-hydroxyethyl)-1H-imidazol-1-yl)methyl)benzamide] |  | 100 to 794 | 28 | 3.6 ± 1.1
